Entries after “also recorded” stand apart in the source; their conditions may differ.
How the values were obtained:
FCX^2, Fα and Fβ cells = experiment: Collagen gel contraction assay of cells with no PDGFRs, αPDGFR or βPDGFR; assay type: cell-based, mouse; conditions: 50 ng/ml PDGF-BB; 24, 48, 72 hours
Description: The contraction assay was based on a previously described reference, Skuta, G. et al. (1999) J. Biol. Chem. 274:30163, with the following modifications. Fα cells were suspended in 1.5 mg/ml of neutralized collagen I (Cohesion vitrogen 100, Palo Alto, Calif.) at a density of 10^6 cells/ml, and were transferred into the 24-well plate (Falcon, Franklyn Lakes, N.J.) that had been preincubated with phosphate-buffer saline (PBS) with 5 mg/ml of bovine serum albumin (BSA) overnight. The gel was solidified by incubating at 37° C. for 90 minutes, and then the well was flooded with DMEM+5 mg/ml of BSA supplemented with an amount of vitreous such that the final concentration of vitreous in the culture medium was 1, 5 or 20%. […] The media was replaced every 24 hours and the gel diameter was measured after 48 hours. The extent of contraction was calculated by subtracting the diameter of the well at 48 hours from the initial diameter (15 mm). […]
The experiments described in Example 9 (FIG. 7B) were repeated with cells that express the βPDGFR (Fβ) instead of the αPDGFR, or no PDGFRs (FCX^2). Contraction was scored at the 48 hours time point. […]
To more directly test whether TGFβ could moderate contraction of fibroblasts via the αPDGFR, the response of the three cell lines to purified TGFβ was examined. […] The gel diameter was measured after 24, 48, or 72 hours, and the media was replaced every day.

αPDGFR = biological target: T1, αPDGFR (Homo sapiens, UniProt P16234); experiment: Tyrosine phosphorylation of the αPDGFR in TGFβ- or PDGF-treated F cells; assay type: cell-based; conditions: Fα cells; 50 ng/ml PDGF-BB 5 minutes or 1 ng/ml TGFβ1 5 minutes to 8 hours
T1 construct: expressed in transfected cells; host or cells: F cells (SV-40 immortalized mouse embryo fibroblasts lacking both PDGFRs), giving Fα
T1 sequence (P16234 24-1089): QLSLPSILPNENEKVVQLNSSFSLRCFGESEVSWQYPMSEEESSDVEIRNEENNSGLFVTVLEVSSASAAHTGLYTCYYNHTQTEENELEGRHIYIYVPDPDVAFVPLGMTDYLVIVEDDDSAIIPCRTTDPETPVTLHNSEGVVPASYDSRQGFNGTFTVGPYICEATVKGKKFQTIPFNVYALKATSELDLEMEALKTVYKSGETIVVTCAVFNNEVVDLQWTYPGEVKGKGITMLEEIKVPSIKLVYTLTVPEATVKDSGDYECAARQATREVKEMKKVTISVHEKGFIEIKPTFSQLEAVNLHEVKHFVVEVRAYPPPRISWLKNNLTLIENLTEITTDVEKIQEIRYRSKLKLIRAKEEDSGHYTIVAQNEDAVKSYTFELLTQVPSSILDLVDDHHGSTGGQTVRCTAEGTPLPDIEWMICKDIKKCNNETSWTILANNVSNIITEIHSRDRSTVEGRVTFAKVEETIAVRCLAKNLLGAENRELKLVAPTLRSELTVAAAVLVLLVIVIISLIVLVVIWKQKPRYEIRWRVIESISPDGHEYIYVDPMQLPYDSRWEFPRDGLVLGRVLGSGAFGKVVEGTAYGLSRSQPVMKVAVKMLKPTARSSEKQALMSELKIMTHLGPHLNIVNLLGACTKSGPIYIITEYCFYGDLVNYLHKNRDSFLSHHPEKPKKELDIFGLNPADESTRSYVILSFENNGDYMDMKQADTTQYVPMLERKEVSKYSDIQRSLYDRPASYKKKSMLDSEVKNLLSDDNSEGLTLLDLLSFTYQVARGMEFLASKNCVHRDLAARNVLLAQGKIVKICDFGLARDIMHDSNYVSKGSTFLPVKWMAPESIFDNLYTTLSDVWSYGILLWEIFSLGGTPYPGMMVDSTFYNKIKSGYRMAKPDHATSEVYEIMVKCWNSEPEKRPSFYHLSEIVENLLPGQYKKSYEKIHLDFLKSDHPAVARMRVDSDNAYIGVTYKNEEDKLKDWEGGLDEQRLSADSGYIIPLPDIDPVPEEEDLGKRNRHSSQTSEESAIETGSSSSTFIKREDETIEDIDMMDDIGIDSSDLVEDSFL
Description: To show the effect of TGFβ on αPDGFR, the tyrosine phosphorylation state of the αPDGFR was assayed in TGFβ-treated cells. The F cells with or without PDGFR were grown to 80% confluent and then starved with DMEM containing 1% FBS for 20 hours. Cells were exposed at 37° C. for 5 minutes to either 50 ng/ml of PDGF-BB; with 1 ng/ml of TGFβ1 for 5 minutes, 1 hour, 2 hours, 4 hours, 6 hours or 8 hours; or were left unstimulated. After treatment the cells were washed twice with H/S (20 mM Hepes, pH 7.4, 150 mM NaCl) and then lysed in EB (10 mM Tris-HCl, pH 7.4, 5 mM EDTA, 50 mM NaCl, 50 mM NaF, 1% Triton-X 100, 0.1% BSA, 20 μg/ml aprotinin, 2 mM Na3VO4, 1 mM phenylmethylsulfonyl fluoride; PMSF). Lysates were centrifuged for 15 minutes at 13,000×g, the pellet was discarded and the soluble fraction was used as the total cell lysate. The protein concentration was measured using protein assay kit (Pierce, Rockfield, Ill.) following the manufacture's instructions.
Receptors were immunoprecipitated from the soluble fraction with the 27P antibody (described above). Immune complex was bound to formalin-fixed membranes of Staphylococcus aureus, spun through an EB sucrose gradient, and washed twice with EB, then with PAN (10 mM Pipes, pH 7.0, 100 mM NaCl, 1% aprotinin)+0.5% Nonidet P-40 (NP-40), and finally with PAN. The samples were resuspended in PAN before using for kinase assay or western blotting. […]

F cells = experiment: Collagen gel contraction assay of F cells expressing αPDGFR mutants; assay type: cell-based, mouse; conditions: PDGF-BB (50 ng/ml), 48 hours
Description: The contraction assay was based on a previously described reference, Skuta, G. et al. (1999) J. Biol. Chem. 274:30163, with the following modifications. Fα cells were suspended in 1.5 mg/ml of neutralized collagen I (Cohesion vitrogen 100, Palo Alto, Calif.) at a density of 10^6 cells/ml, and were transferred into the 24-well plate (Falcon, Franklyn Lakes, N.J.) that had been preincubated with phosphate-buffer saline (PBS) with 5 mg/ml of bovine serum albumin (BSA) overnight. The gel was solidified by incubating at 37° C. for 90 minutes, and then the well was flooded with DMEM+5 mg/ml of BSA supplemented with an amount of vitreous such that the final concentration of vitreous in the culture medium was 1, 5 or 20%. The gels were incubated at 37° C. with 5% CO2. The initial gel diameter was 15 mm. The media was replaced every 24 hours and the gel diameter was measured after 48 hours. The extent of contraction was calculated by subtracting the diameter of the well at 48 hours from the initial diameter (15 mm). Each experimental condition was assayed in triplicate, and at least three independent experiments were performed. Unpaired t-test was performed to detect statistic difference in contraction assay.
To determine the signaling pathways that drive contraction, cells expressing the αPDGFR mutants were subjected to the collagen gel contraction assay described above. Accordingly, F cells expressing the indicated αPDGFRs were subjected to the collagen gel assay in the presence of buffer, PDGF-BB (50 ng/ml), TGFβ1 (1 ng/ml), or FBS (10%). The data presented are the mean±standard deviation measured at the 48 hours time point. Each experimental condition was assayed in triplicate, and at least 3 independent experiments were performed.

rabbit eyes = experiment: Rabbit PVR model: F cells expressing αPDGFR mutants injected into the vitreous; assay type: in vivo; conditions: up to 28 days after the surgery
Description: PVR was induced in the rabbit eyes as previously described (Andrews, A. et al. (1999) Invest. Ophthalmol. Vis. Sci. 40:2683 and Nakagawa, M. et al. (1995) Invest. Ophthalmol. Vis. Sci. 36:2388). Briefly, gas vitrectomy was performed by injecting 0.4 ml of expanding perfluoropropane gas (C3F8) into the vitreous cavity 4 mm posterior to the corneal limbus under anesthetical condition. Three days later, the rabbits were anesthetized and the pupils were dilated. 0.1 ml DMEM containing 1×10^5 of RCFs expressing empty vector or αPDGFR mutant were injected into the vitreous cavity together with 0.1 ml of PRP using 30 G needle. Ten rabbits underwent surgery for each cell population expressing the empty vector or the truncated, E587K, T665M, D818N, or V859M αPDGFR mutants. One rabbit in the D818N group died just after the surgery, therefore the total number is 9 for this group. The retinal status was evaluated with an indirect ophthalmoscope fitted with a +30 D fundus lens at 1, 4, 7, 14, 21, and 28 days after the surgery. The PVR was graded from 0 through 5 according to the Fastenberg score. Fastenberg, D. M. et al. (1982) Am. J. Ophthalmol. 93:565. The grading is as follows: 0; no abnormality, 1; vitreous strand, 2; traction of the retina, 3; partial retinal detachment (less than 2 quadrant), 4; extended (more than 2 quadrant) but not total retinal detachment, 5; total retinal detachment. All surgeries were performed under aseptic conditions and pursuant to the regulation of the ARVO Statement for the Use of Animals in Ophthalmic and Vision Research. Only the left eye of each rabbit was used for the experiments.
An important component of PVR is the traction force that is generated when cells of the epiretinal membrane contract. To test if the signaling enzymes that are required for contraction in the in vitro assays also participate in PVR, the cells expressing the various αPDGFR mutants, described in the previous Examples, were assayed in a rabbit PVR model, described above. In this model, rabbits first undergo gas vitrectomy, and then cells are coinjected with […]. The formation of an epiretinal membrane and retinal detachment is observed in living animals over 28 days.
Briefly, PVR was induced by introducing F cells expressing the indicated αPDGFR into the vitreous of the rabbit eyes. The PVR score was evaluated up to 28 days after the surgery according to the classification described above. The mean value and standard error of the scores in a group were indicated. Each group contained 9 or 10 rabbits; the response to parental F cells was previously reported (Andrews et al., supra), and was included here for comparison purposes.

SHP-2 = experiment: Co-immunoprecipitation of SHP-2 with αPDGFR mutants in F cells; assay type: cell-based, mouse; conditions: 50 ng/ml PDGF-BB, 5 minutes
Description: (§1) The ability of the αPDGFR mutants to undergo ligand dependent tyrosine phosphorylation and to associate with signaling enzymes was then tested. F cells expressing various αPDGFR mutants were grown to subconfluence and serum starved overnight. Cells were either left resting (−) or stimulated with 50 ng/ml PDGF-BB (+) for 5 minutes, and lysed. The αPDGFR was immunoprecipitated with αPDGFR antibody, as described above, and the resulting immunoprecipitates were resolved by 7.5% SDS-PAGE and transferred onto Immobilon. The segment of the blot containing the αPDGFR was first blotted with anti-phosphotyrosine antibodies, then stripped and reprobed with an anti-αPDGFR antibody. Portions of the membrane that contained the proteins of the appropriate molecular mass were immunoblotted for PLCγ, the regulatory subunit of PI3K (p85), or SHP-2. Crude rabbit anti-p85 antibody is from Dr. A. Toker (Beth Israel Hospital/Harvard Medical School, Boston, Mass.). The monoclonal antibodies against PLCγ and SHP-2 were purchased from Upstate Biotechnology Inc.

GST-PLCγ = experiment: In vitro kinase assay of immunoprecipitated mutant αPDGFRs with exogenous substrate; assay type: biochemical; conditions: 292 immunoprecipitates, [32P]-γ ATP, 30° C., 5 min
Description: Mutant αPDGFRs were selectively immunoprecipitated with the 292 antibody, and samples representing 2×10^5 cells from 292 antibodies were subjected to an in vitro kinase assay. Immunoprecipitates were preincubated with 2 μg of GST protein for 10 min at 0° C., then 2 μg of Glutathione S-transferase fusion phospholipase C-gamma (GST-PLCγ, an exogenous substrate, 10 μCi of γ-[^32P] ATP (DuPont NEN Research Products, Boston, Mass.), and universal kinase buffer (UKB; 20 mM Pipes, pH 7.0, 10 mM MnCl2, 20 μg/ml aprotinin) were added. The samples were incubated at 30° C. for 5 min. The proteins were separated by 7.5% sodium dodecyl sulfate-polyacrylamide gel electrophoresis (SDS-PAGE), the gel was dried, and the radiolabeled protein was detected by autoradiography.

PLCγ = experiment: Co-immunoprecipitation of PLCγ with αPDGFR mutants in F cells; assay type: cell-based, mouse; conditions: 50 ng/ml PDGF-BB, 5 minutes
Description: as §1

Substance | PDGF-dependent contraction (F cells) | potential to induce PVR (PVR score) (rabbit eyes) | kinase activity towards exogenous substrate GST-PLCγ (GST-PLCγ) | also measured
PDGF |  |  |  | PDGF-induced contraction (FCX^2, Fα and Fβ cells): triggered the same extent of contraction of the Fα and Fβ cells; tyrosine phosphorylation of the αPDGFR (αPDGFR): greatly increased the receptor's phosphotyrosine content
F720: αPDGFR mutant, Tyr to Phe substitution at 720 | somewhat reduced response | induced PVR similarly to the WT receptor-expressing cells |  | recruitment of SHP-2 (Properties) (SHP-2): failed to efficiently associate; also recorded: Fails to recruit SHP-2
T665M: human αPDGFR point mutant, threonine at position 665 changed to methionine; SEQ ID NO: 6 |  |  | more active than the WT receptor | 
E587K: human αPDGFR point mutant, glutamic acid at position 587 changed to lysine; SEQ ID NO: 4 |  |  | comparable to the WT receptor | 
F1018: αPDGFR mutant, Tyr to Phe substitution at 1018 | severely compromised contraction | significantly reduced |  | recruitment or activation of PLCγ (Properties) (PLCγ): failed to efficiently associate; also recorded: Fails to recruit or activate
